Where two headings read alike, the source gives them in different places. Values belong to the compound of their own block, whether it stands above or below them. Bridge positions count the residues as written; N and C are the ends. Square brackets hold non-standard residues; d marks the D form. Peptide text beside a SMILES is read from it. hArg = N=C(N)NCCCC[C@H](N)C(=O)O
How the values were obtained:
[1] = target: T1, PPIA (Homo sapiens, UniProt P62937); assay: KD determination of cyclic peptides derived from Formula (I); assay type: binding
[2] = target: T1, PPIA; conditions: read-out: KD, binds and sequesters cytosolic PPIA; cited from earlier work
[3] = tested on: HL-1 cells; assay: Cell viability assay (LDH release) in HL-1 cells under Ca2+ overload; assay type: cell-based, mouse
Method: Calcium (Ca^2+) Overload Protocol: Rapid and sustained intracellular Ca^2+ overload was obtained by adding the Ca^2+-ionophore, calcimycin (1 μM), to HL-1 cells incubated for 10 min in HBS KV medium (1.26 mM CaCl2, 0.81 mM MgSO4, 0.44 mM KH2PO4, 142 mM KCl, 0.27 mM K2HPO4, 5.55 mM D-glucose, 1 mM Na3VO4, 20 mM Hepes pH 7.4). To monitor intracellular Ca^2+ variations, HL-1 cells were loaded with 5 μM Fluo-4 FF AM (Molecular Probes) in HBS Na (Sigma) for 30 min before the media was replaced with HBS KV. […] Cell Viability Assay: HL-1 plasma membrane integrity was assessed by measuring lactate dehydrogenase (LDH) release in the culture supernatant. An enzymatic assay evaluated LDH activity. Samples of the cell-free culture supernatant were collected at indicated times in Figures/Figure Legends, while cells were lysed in 1% (w/v) Triton X-100 at the end of each experiment to estimate the remaining cellular content of LDH. The LDH activity at each time point was expressed as a percentage of total LDH activity.

[4] = target: T2, CAPN1 (Mus musculus, UniProt O35350); assay: Calpain activity assay (Suc-LLVY-AMC cleavage) in HL-1 cells under Ca2+ overload; assay type: cell-based
T2 construct: endogenous in cells; host or cells: HL-1 cardiomyocytes
T2 sequence (O35350 1-713): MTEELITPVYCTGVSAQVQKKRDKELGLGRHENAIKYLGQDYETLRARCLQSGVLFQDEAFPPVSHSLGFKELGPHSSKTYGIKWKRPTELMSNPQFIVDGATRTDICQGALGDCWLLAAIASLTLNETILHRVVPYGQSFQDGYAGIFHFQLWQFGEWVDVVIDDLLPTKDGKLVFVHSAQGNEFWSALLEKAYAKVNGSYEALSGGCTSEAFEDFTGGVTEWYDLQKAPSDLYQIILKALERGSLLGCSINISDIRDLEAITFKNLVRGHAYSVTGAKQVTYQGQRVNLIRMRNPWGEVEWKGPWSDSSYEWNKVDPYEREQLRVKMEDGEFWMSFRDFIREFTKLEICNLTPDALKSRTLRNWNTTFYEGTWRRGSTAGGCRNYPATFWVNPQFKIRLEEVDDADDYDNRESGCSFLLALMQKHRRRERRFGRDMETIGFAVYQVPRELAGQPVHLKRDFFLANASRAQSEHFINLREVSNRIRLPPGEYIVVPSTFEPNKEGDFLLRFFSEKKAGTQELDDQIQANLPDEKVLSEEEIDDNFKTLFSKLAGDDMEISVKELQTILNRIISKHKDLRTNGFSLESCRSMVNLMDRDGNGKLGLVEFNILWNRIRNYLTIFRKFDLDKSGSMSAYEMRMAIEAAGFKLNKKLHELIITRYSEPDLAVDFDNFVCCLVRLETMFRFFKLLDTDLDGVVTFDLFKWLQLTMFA
T2 sequence (O88456 1-268 partner): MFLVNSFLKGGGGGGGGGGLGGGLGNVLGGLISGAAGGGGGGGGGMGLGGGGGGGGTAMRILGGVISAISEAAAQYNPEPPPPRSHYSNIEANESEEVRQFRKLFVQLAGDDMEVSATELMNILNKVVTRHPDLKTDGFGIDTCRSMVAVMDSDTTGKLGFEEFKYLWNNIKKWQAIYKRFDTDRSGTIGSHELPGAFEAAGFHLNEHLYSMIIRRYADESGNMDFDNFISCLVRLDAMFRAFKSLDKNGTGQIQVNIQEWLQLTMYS
Method: Calcium (Ca^2+) Overload Protocol: Rapid and sustained intracellular Ca^2+ overload was obtained by adding the Ca^2+-ionophore, calcimycin (1 μM), to HL-1 cells incubated for 10 min in HBS KV medium (1.26 mM CaCl2, 0.81 mM MgSO4, 0.44 mM KH2PO4, 142 mM KCl, 0.27 mM K2HPO4, 5.55 mM D-glucose, 1 mM Na3VO4, 20 mM Hepes pH 7.4). To monitor intracellular Ca^2+ variations, HL-1 cells were loaded with 5 μM Fluo-4 FF AM (Molecular Probes) in HBS Na (Sigma) for 30 min before the media was replaced with HBS KV. […] Calpain (CAPN) Activity Assay: […] HL-1 cells were grown in 24-well plates and incubated for 30 min in HBS Na (Sigma) with 25 μM Suc-LLVY-AMC (SEQ ID NO: 81) and 0.01% pluronic F127 (Molecular Probes) before treatment protocols. […] CAPN activity was inhibited via the addition of either calpeptin (Tocris) or PD150606 (Calbiochem) in the incubation medium.

[5] = tested on: HL-1 cells; assay: Intracellular Ca2+ (Fluo4 FF fluorescence) in HL-1 cells; assay type: cell-based, mouse; conditions: Calcimycin 1 μM in HBS KV medium
Method: (§1) Calcium (Ca^2+) Overload Protocol: Rapid and sustained intracellular Ca^2+ overload was obtained by adding the Ca^2+-ionophore, calcimycin (1 μM), to HL-1 cells incubated for 10 min in HBS KV medium (1.26 mM CaCl2, 0.81 mM MgSO4, 0.44 mM KH2PO4, 142 mM KCl, 0.27 mM K2HPO4, 5.55 mM D-glucose, 1 mM Na3VO4, 20 mM Hepes pH 7.4). To monitor intracellular Ca^2+ variations, HL-1 cells were loaded with 5 μM Fluo-4 FF AM (Molecular Probes) in HBS Na (Sigma) for 30 min before the media was replaced with HBS KV.

[6] = tested on: HL-1 cells; assay: Mitochondrial membrane potential (JC-1) assay in HL-1 cells; assay type: cell-based, mouse; conditions: Calcimycin 1 μM in HBS KV medium
Method: Calcium (Ca^2+) Overload Protocol: Rapid and sustained intracellular Ca^2+ overload was obtained by adding the Ca^2+-ionophore, calcimycin (1 μM), to HL-1 cells incubated for 10 min in HBS KV medium (1.26 mM CaCl2, 0.81 mM MgSO4, 0.44 mM KH2PO4, 142 mM KCl, 0.27 mM K2HPO4, 5.55 mM D-glucose, 1 mM Na3VO4, 20 mM Hepes pH 7.4). To monitor intracellular Ca^2+ variations, HL-1 cells were loaded with 5 μM Fluo-4 FF AM (Molecular Probes) in HBS Na (Sigma) for 30 min before the media was replaced with HBS KV. […] Mitochondrial Membrane Potential (MMP) Assay: MMP was determined using the potentiometric probe, JC-1. JC-1 (Molecular Probes) is a cationic carbocyanine dye that selectively accumulates in polarized mitochondria, where it forms red fluorescent aggregates (excitation 485/emission 590 nm). Upon mitochondrial depolarization, JC-1 is released into the cytosol, whereas a monomer emits green fluorescence (excitation 485 nm/emission 520 nm). Therefore, MMP variations were monitored as the ratio of fluorescent emissions at 590/520 nm using a fluorimeter plate reader (Fluoroskan Ascent Labsystem). HL-1 cells were incubated with JC-1 (1.5 μM) for 30 min at 37° C. in HBS Na before treatment protocols.

[7] = target: T2, CAPN1; assay: Western blot of CAPN1 in purified mitochondria from HL-1 cells under Ca2+ overload; assay type: cell-based; conditions: Ca2+ overload (HBS KVC), calpeptin 50 μM, PD150606 10 μM
Method: as §1, with “KV. The fluorescence was recorded using a fluorimeter plate reader (Fluoroskan Ascent Labsystem) at wavelength settings of 485/530 nm for excitation/emission, respectively.” for “KV.”
Mitochondria Isolation Protocol: Mitochondria were isolated from HL-1 cells in percoll density gradient. Briefly, 30×10^6 adherent cells were harvested with Trypsin/EDTA, centrifuged at 500×g for 10 min, washed in buffer A (100 mM sucrose, 1 mM EGTA, 20 mM MOPS, pH 7.4, and 1 mg/mL BSA) before cell disruption with a Dounce homogenizer. The suspension was centrifuged twice at 500× g for 5 min and the resulting supernatant at 10,000×g for 10 min at 4° C. The pellet was re-suspended in buffer B (300 mM sucrose, 1 mM EGTA, 20 mM MOPS pH 7.4, 1 mg/mL BSA), and the homogenate was layered on a two-phase (25% and 40%) percoll density gradient. […]

[8] = Ca2+ overload in HBS KV medium, 5 mM EGTA in incubation media
[9] = Calcimycin 1 μM in HBS KV medium, dose-dependent response

T1 sequence (P62937 whole entry, species assumed): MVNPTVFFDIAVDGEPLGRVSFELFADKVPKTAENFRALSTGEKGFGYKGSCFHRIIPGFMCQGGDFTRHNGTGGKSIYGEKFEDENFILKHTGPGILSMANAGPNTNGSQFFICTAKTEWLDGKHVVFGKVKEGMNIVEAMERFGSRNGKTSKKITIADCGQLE

Kd [1]: > 1000 µM
Compound: CC[C@H](C)[C@@H]1NC(=O)[C@@H](N)CSSC[C@@H](C(N)=O)NC(=O)[C@H](C(C)C)NC(=O)[C@H](CCCCNC(=N)N)NC(=O)[C@H](CCCNC(=N)N)NC(=O)CNC(=O)[C@H](CC(=O)O)NC(=O)[C@H](CCCCN)NC(=O)[C@H](CC(C)C)NC(=O)[C@H](CCCCN)NC1=O [X8: hR] (H-CIKLKDGR[hArg]VC-NH2; disulfide 1-11)

Compound: QSVGVSSGKLLIKLKDGRKVETDHI [AIF (370-394), Linear peptide, 25 amino acids long]
Kd [2]: 12 µM

Compound: O=C(O)CN(CCOCCOCCN(CC(=O)O)CC(=O)O)CC(=O)O [EGTA]
cell death (LDH release) [3, 8]: attenuated
CAPN1 activation [4, 8]: attenuated

Compound: O=C(O)/C(S)=C/c1ccc(I)cc1 [PD150606]
reduction in cell death (LDH release) [3, 9]: ~15%
reduction in Ca2+ overload-induced CAPN1 substrate hydrolysis [4, 9]: ~60%
kinetics of cytosolic Ca2+ accumulation [5]: neither of them had an impact
Ca2+ overload-induced decrease in mitochondrial membrane potential (MMP) [6]: reduced ability to restore MMP
mitochondrial CAPN1 translocation [7]: failed to prevent

Kd [1]: > 1000 µM
Compound: CC[C@H](C)[C@@H]1NC(=O)[C@@H](N)CSSC[C@@H](C(N)=O)NC(=O)[C@H](C(C)C)NC(=O)[C@H](CCCCN)NC(=O)[C@H](CCCNC(=N)N)NC(=O)CNC(=O)[C@H](CC(=O)O)NC(=O)[C@H](CCCCNC(=N)N)NC(=O)[C@H](CC(C)C)NC(=O)[C@H](CCCCN)NC1=O [X4: hR] (H-CIKL[hArg]DGRKVC-NH2; disulfide 1-11)

From patent publication US20240109937A1, “BINDING PEPTIDES AND USES THEREOF” (The Johns Hopkins University, priority 2021, published 2024)
